Measurements: article PMC8640094, “Diaportones A–C: Three New Metabolites From Endophytic Fungus Diaporthe foeniculina BZM-15” (Frontiers in Chemistry, 2021)
≈ marks a conversion by molar mass, not a printed value.

Tests used:
MRSA (JCSC 3063) = assay: Antibacterial assay, broth macrodilution, MRSA; type: cell-based; settings: Staphylococcus aureus
Protocol: Antibacterial activity of all compounds against MRSA (JCSC 3063) and E. coli (ATCC 8739) was tested by the broth […] method on 96-well plates according to the CLSI recommendation ([Li et al., 2014]).

MCF-7 (breast cancer) = assay: MTT cytotoxicity assay, MCF-7 cells; type: cell-based, human; settings: Homo sapiens
Protocol: (§1) The cytotoxicity of all compounds against three human tumor cell lines, SF-268 (CNS cancer), MCF-7 (breast cancer), and HepG2 (hepatoma cancer), and normal cell line LX-2 was tested using the MTT assay. […] All cells were seeded into 96-well plates at 5 × 10^4 cells/ml and incubated at 37°C under a 5% CO2 atmosphere for 24 h. Then, the tested compounds were added. After 72 h, MTT solution was added into each well, which was further incubated. The cell-free supernatant was removed and formazan crystals were subsequently dissolved in DMSO. Optical density (OD) was recorded at 490 nm on a microplate reader to calculate the IC50 values.

SF-268 (CNS cancer) = assay: MTT cytotoxicity assay, SF-268 cells; type: cell-based, human; settings: Homo sapiens
Protocol: (§2) The cytotoxicity of all compounds against three human tumor cell lines, SF-268 (CNS cancer), MCF-7 (breast cancer), and HepG2 (hepatoma cancer), and normal cell line LX-2 was tested using the MTT assay. Adriamycin was used as a positive control. All cells were seeded into 96-well plates at 5 × 10^4 cells/ml and incubated at 37°C under a 5% CO2 atmosphere for 24 h. Then, the tested compounds were added. After 72 h, MTT solution was added into each well, which was further incubated. The cell-free supernatant was removed and formazan crystals were subsequently dissolved in DMSO. Optical density (OD) was recorded at 490 nm on a microplate reader to calculate the IC50 values.

[1] = tested on: three human cancer cell lines (SF-268, MCF-7, and HepG2); assay: MTT cytotoxicity, summary over three human cancer cell lines; type: cell-based
Protocol: as §2

HepG2 (hepatoma cancer) = assay: MTT cytotoxicity assay, HepG2 cells; type: cell-based, human; settings: Homo sapiens
Protocol: as §2

normal cell line LX-2 = assay: MTT cytotoxicity assay, normal cell line LX-2; type: cell-based
Protocol: as §1

CN[C@H](CC(C)C)C(=O)N[C@H]1C(=O)N[C@@H](CC(N)=O)C(=O)N[C@H]2C(=O)N[C@H]3C(=O)N[C@H](C(=O)N[C@H](C(=O)O)c4cc(O)cc(O)c4-c4cc3ccc4O)[C@H](O)c3ccc(c(Cl)c3)Oc3cc2cc(c3O[C@@H]2O[C@H](CO)[C@@H](O)[C@H](O)[C@H]2O[C@H]2C[C@](C)(N)[C@H](O)[C@H](C)O2)Oc2ccc(cc2Cl)[C@H]1O [Vancomycin]
MIC (MRSA (JCSC 3063)): 1.25 µg/mL (≈ 0.863 µM)

CC(C)[C@@H](C)C=C[C@@H](C)[C@H]1CC[C@@]2(O)C3=CC(=O)C4=CC(=O)CC[C@]4(C)[C@H]3CC[C@]12C [compound 8, 14α-hydroxyergosta-4,7,22-triene-3,6-dione]
inhibition at 1 µM (MCF-7 (breast cancer); MCF7, 72 h, MCF-7, c 1.00 μM, three replicates, read-out: cell inhibition): 21.5%
inhibition at 2 µM (MCF-7 (breast cancer); MCF7, 72 h, MCF-7, c 2.00 μM, three replicates, read-out: cell inhibition): 26.3%
inhibition at 4 µM (MCF-7 (breast cancer); MCF7, 72 h, MCF-7, c 4.00 μM, three replicates, read-out: cell inhibition): 35.6%
inhibition at 8 µM (MCF-7 (breast cancer); MCF7, 72 h, MCF-7, c 8.00 μM, three replicates, read-out: cell inhibition): 47.3%
inhibition at 16 µM (MCF-7 (breast cancer); MCF7, 72 h, MCF-7, c 16.00 μM, three replicates, read-out: cell inhibition): 72.4%
inhibition at 32 µM (MCF-7 (breast cancer); MCF7, 72 h, MCF-7, c 32.00 μM, three replicates, read-out: cell inhibition): 89.1%
inhibition at 64 µM (MCF-7 (breast cancer); MCF7, 72 h, MCF-7, c 64.00 μM, three replicates, read-out: cell inhibition): 97.3%
inhibition at 128 µM (MCF-7 (breast cancer); MCF7, 72 h, MCF-7, c 128.00 μM, three replicates, read-out: cell inhibition): 96.2%
IC50 (MCF-7 (breast cancer); MCF7, MTT, 72 h, mean ± SD (n = 3)): 11.4 ± 0.3 µM
inhibition at 1 µM (SF-268 (CNS cancer); SF-268, 72 h, SF268 cells, c 1.00 μM, triplicate values, read-out: cell inhibition): 21.4%
inhibition at 2 µM (SF-268 (CNS cancer); SF-268, 72 h, SF268 cells, c 2.00 μM, triplicate values, read-out: cell inhibition): 30.2%
inhibition at 4 µM (SF-268 (CNS cancer); SF-268, 72 h, SF268 cells, c 4.00 μM, triplicate values, read-out: cell inhibition): 44.3%
inhibition at 8 µM (SF-268 (CNS cancer); SF-268, 72 h, SF268 cells, c 8.00 μM, triplicate values, read-out: cell inhibition): 46.8%
inhibition at 16 µM (SF-268 (CNS cancer); SF-268, 72 h, SF268 cells, c 16.00 μM, triplicate values, read-out: cell inhibition): 81.4%
inhibition at 32 µM (SF-268 (CNS cancer); SF-268, 72 h, SF268 cells, c 32.00 μM, triplicate values, read-out: cell inhibition): 85.3%
inhibition at 64 µM (SF-268 (CNS cancer); SF-268, 72 h, SF268 cells, c 64.00 μM, triplicate values, read-out: cell inhibition): 92.4%
inhibition at 128 µM (SF-268 (CNS cancer); SF-268, 72 h, SF268 cells, c 128.00 μM, triplicate values, read-out: cell inhibition): 97.3%
IC50 (SF-268 (CNS cancer); SF-268, MTT, 72 h, mean ± SD (n = 3), read-out: IC50 SF268): 8.3 ± 0.5 µM
cell inhibition against three human cancer cell lines, in words [1]: good cell inhibition
IC50 ([1]; Homo sapiens, read-out: IC50 values, range over three cell lines): 3.6 to 15.8 µM
inhibition at 1 µM (HepG2 (hepatoma cancer); HepG2, 72 h, HepG2, c 1.00 μM, three replicates, read-out: cell inhibition): 20.3%
inhibition at 2 µM (HepG2 (hepatoma cancer); HepG2, 72 h, HepG2, c 2.00 μM, three replicates, read-out: cell inhibition): 27.1%
inhibition at 4 µM (HepG2 (hepatoma cancer); HepG2, 72 h, HepG2, c 4.00 μM, three replicates, read-out: cell inhibition): 34.1%
inhibition at 8 µM (HepG2 (hepatoma cancer); HepG2, 72 h, HepG2, c 8.00 μM, three replicates, read-out: cell inhibition): 46.7%
inhibition at 16 µM (HepG2 (hepatoma cancer); HepG2, 72 h, HepG2, c 16.00 μM, three replicates, read-out: cell inhibition): 58.6%
inhibition at 32 µM (HepG2 (hepatoma cancer); HepG2, 72 h, HepG2, c 32.00 μM, three replicates, read-out: cell inhibition): 78.4%
inhibition at 64 µM (HepG2 (hepatoma cancer); HepG2, 72 h, HepG2, c 64.00 μM, three replicates, read-out: cell inhibition): 89%
inhibition at 128 µM (HepG2 (hepatoma cancer); HepG2, 72 h, HepG2, c 128.00 μM, three replicates, read-out: cell inhibition): 94.3%
IC50 (HepG2 (hepatoma cancer); HepG2, MTT, 72 h, mean ± SD (n = 3)): 15.8 ± 1.3 µM
inhibition at 1 µM (normal cell line LX-2; 72 h, LX-2, c 1.00 μM, three replicates): 13.6%
inhibition at 2 µM (normal cell line LX-2; 72 h, LX-2, c 2.00 μM, three replicates): 19.2%
inhibition at 4 µM (normal cell line LX-2; 72 h, LX-2, c 4.00 μM, three replicates): 28%
inhibition at 8 µM (normal cell line LX-2; 72 h, LX-2, c 8.00 μM, three replicates): 35.9%
inhibition at 16 µM (normal cell line LX-2; 72 h, LX-2, c 16.00 μM, three replicates): 41.6%
inhibition at 32 µM (normal cell line LX-2; 72 h, LX-2, c 32.00 μM, three replicates): 48.5%
inhibition at 64 µM (normal cell line LX-2; 72 h, LX-2, c 64.00 μM, three replicates): 73.4%
inhibition at 128 µM (normal cell line LX-2; 72 h, LX-2, c 128.00 μM, three replicates): 90.3%
IC50 (normal cell line LX-2; MTT, 72 h, mean ± SD (n = 3)): > 40 µM
activity on the normal cell line LX-2 (normal cell line LX-2; in words): not active
